Data published in patent US6166290A, “Glutathione-S-conjugate transport in plants” (The Trustees of the University of Pennsylvania, priority 1997, dated 2000).
Where “and” joins values, the source holds several entries; their conditions need not be identical. Equal values may be shown once.

Columns and labels:
[1] = system: DTY165 cells; experiment: Fluorescence microscopy of vacuolar bimane-GS accumulation, DTY165 cells; type: cell-based, Saccharomyces cerevisiae; conditions: 100 μM monochlorobimane, 6 hours
Method: (§1) Cells were grown in YPD medium for 24 hours at 30° C. to an OD600 nm of approximately 1.4, and 100 μl aliquots of the suspensions were transferred to 15 ml volumes of fresh YPD medium containing 100 μM syn-(ClCH2,CH3)-1,5-diazabicyclo-[3.3.0]-[…] (monochlorobimane) (Kosower et al., 1980, J Am. Chem. Soc. 102:4983-4993). After incubation for 6 hours, the cells were pelleted by centrifugation, washed twice with YPD medium lacking monochlorobimane, and viewed without fixation under an Olympus BH-2 fluorescence microscope equipped with a BP-490 UV excitation filter, AFC-0515 barrier filter, and Nomarski optics attachment.

[2] = molecular target: T1, YCF1 (vacuolar membrane vesicles purified from DTY165 cells) (Saccharomyces cerevisiae, UniProt P39109); experiment: [3H]DNP-GS uptake by vacuolar membrane vesicles purified from DTY165 cells; type: biochemical
T1 construct: endogenous in cells; host or cells: S. cerevisiae DTY165 (wild type YCF1), vacuolar membrane vesicles
T1 sequence (P39109 whole entry): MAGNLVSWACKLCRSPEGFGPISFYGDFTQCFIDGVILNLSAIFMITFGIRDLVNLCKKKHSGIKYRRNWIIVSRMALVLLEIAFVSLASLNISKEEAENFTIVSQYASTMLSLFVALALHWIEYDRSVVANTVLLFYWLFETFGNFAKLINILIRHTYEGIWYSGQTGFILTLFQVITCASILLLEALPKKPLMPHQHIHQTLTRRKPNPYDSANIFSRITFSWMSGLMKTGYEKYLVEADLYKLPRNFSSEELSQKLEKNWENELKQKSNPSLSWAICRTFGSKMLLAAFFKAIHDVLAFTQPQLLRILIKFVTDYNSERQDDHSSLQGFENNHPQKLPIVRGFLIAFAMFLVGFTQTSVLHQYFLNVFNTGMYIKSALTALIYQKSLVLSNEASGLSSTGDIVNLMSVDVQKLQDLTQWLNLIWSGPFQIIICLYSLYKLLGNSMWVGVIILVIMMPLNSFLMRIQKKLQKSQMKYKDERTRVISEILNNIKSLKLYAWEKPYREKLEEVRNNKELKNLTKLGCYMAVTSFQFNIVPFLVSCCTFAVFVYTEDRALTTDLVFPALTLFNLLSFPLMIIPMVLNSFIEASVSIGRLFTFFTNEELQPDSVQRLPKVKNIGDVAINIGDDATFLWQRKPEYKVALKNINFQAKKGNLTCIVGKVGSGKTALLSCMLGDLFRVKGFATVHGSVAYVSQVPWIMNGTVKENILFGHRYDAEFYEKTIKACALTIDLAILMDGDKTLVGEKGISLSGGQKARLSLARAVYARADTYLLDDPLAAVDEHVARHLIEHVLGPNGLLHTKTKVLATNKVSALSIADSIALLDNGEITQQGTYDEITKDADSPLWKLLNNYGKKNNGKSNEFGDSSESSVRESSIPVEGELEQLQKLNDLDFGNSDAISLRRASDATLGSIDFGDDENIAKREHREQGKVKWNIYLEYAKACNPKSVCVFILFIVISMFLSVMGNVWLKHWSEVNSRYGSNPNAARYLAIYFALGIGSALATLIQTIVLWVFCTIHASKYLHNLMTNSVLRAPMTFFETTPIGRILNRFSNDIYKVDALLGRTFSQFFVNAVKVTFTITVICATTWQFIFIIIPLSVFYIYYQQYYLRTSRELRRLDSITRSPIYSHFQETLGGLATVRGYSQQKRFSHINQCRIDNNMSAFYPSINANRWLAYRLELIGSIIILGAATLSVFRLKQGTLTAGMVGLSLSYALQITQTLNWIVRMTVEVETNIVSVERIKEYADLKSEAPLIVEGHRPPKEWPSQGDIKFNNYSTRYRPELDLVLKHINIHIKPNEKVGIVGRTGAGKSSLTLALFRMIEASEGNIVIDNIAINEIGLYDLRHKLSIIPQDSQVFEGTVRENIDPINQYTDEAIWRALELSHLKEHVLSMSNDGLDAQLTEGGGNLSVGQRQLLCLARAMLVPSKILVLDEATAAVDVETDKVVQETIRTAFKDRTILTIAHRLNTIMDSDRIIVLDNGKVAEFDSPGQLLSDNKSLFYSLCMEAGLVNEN
Procedure, shortened: (§2)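 ATP-dependent [3H]DNP-GS (66.2 μM) transport measured by filtration and scintillation counting of Ficoll-purified yeast vacuolar vesicles (DTY165 wild type; DTY167 ycf1Δ), 1–60 min at 25 °C in sorbitol/Tris-Mes pH 8.0 with 3 mM ATP, 3 mM MgSO4 and gramicidin-D. Nonenergized uptake without ATP/Mg2+.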

[3] = system: vacuolar membrane vesicles purified from DTY167 cells (ycf1Δ mutant); type: biochemical, Saccharomyces cerevisiae; conditions: 5 μM gramicidin D, GSH, GSSG 1 mM, GS-conjugates 100 μM
Procedure, shortened: as §2

[4] = system: DTY167 cells; experiment: Fluorescence microscopy of vacuolar bimane-GS accumulation, DTY167 cells; type: cell-based, Saccharomyces cerevisiae; conditions: 100 μM monochlorobimane, 6 hours
Method: as §1

[5] = substrate: N[C@@H](CCC(=O)N[C@@H](CSSC[C@H](NC(=O)CC[C@H](N)C(=O)O)C(=O)NCC(=O)O)C(=O)NCC(=O)O)C(=O)O; experiment: cells, lysate or membranes; conditions: other: MgATP-dependent, uncoupler-insensitive; pH 8.0
[6] = substrate: N[C@@H](CCC(=O)N[C@@H](CSc1ccc([N+](=O)[O-])cc1[N+](=O)[O-])C(=O)NCC(=O)O)C(=O)O; experiment: AtMRP1-dependent uptake by membrane vesicles from pYES3-AtMRP1-transformed DTY168 cells; type: biochemical, Arabidopsis thaliana; conditions: other: MgATP-dependent, uncoupler-insensitive; pH 8.0

**Q.** How did the “vacuolar fluorescence (bimane-GS)” value [1] turn out when `Cc1c(C)n2c(CCl)c(C)c(=O)n2c1=O` [monochlorobimane, syn-(ClCH2,CH3)-1,5-diazabicyclo-[3.3.0]-octa-3,6-dione-2,8-dione] was run?
**A.** The value was “intense punctate fluorescence”.

**Q.** How did the “MgATP-dependent, uncoupler-insensitive DNP-GS uptake plus compound” value ([2]; 5 μM gramicidin D, GSH, GSSG 1 mM, GS-conjugates 100 μM) turn out when `Cc1c(C)n2c(CSC[C@H](NC(=O)CC[C@H](N)C(=O)O)C(=O)NCC(=O)O)c(C)c(=O)n2c1=O` [Bimane-GS] was run?
**A.** Its value is 25.2 ± 1.1 nmol/mg/10 minutes.

**Q.** What about the “MgATP-dependent, uncoupler-insensitive DNP-GS uptake as percentage of control” value ([2]; 5 μM gramicidin D, GSH, GSSG 1 mM, GS-conjugates 100 μM, 10 min) of the same molecule?
**A.** Its value is 52.6%.

**Q.** And the inhibition at 100 µM ([2]; 100 μM compound)?
**A.** Its inhibition at 100 µM is ~50%.

**Q.** And the “MgATP-dependent, uncoupler-insensitive DNP-GS uptake plus compound” value [3]?
**A.** Its value is 4.5 ± 0.4 nmol/mg/10 minutes.

**Q.** What about the “MgATP-dependent, uncoupler-insensitive DNP-GS uptake as percentage of control” value ([3]; 10 min) of the same molecule?
**A.** Its value is 69.2%.

**Q.** What about the “vacuolar fluorescence (bimane-GS)” value [4] of the same molecule?
**A.** The value was “severely attenuated”.

B1: AtMRP1 (Arabidopsis thaliana) (protein)
chain: MGFEPLDWYCKPVPNGVWTKTVDYAFGAYTPCAIDSFVLGISHLVLLILCLYRLWLITKDHKVDKFCLRSKWFSYFLALLAAYATAEPLFRLVMRISVLDLDGAGFPPYEAFMLVLEAFAWGSALVMTVVETKTYIHELRWYVRFAVIYALVGDMVLLNLVLSVKEYYGSFKLYLYISEVAVQVAFGTLLFVYFPNLDPYPGYTPVGTENSEDYEYEELPGGENICPERHANLFDSIFFSWLNPLMTLGSKRPLTEKDVWHLDTWDKTETLMRSFQKSWDKELEKPKPWLLRALNNSLGGRFWWGGFWKIGNDCSQFVGPLLLNELLKSMQLNEPAWIGYIYAISIFVGVVLGVLCEAQYFQNVMRVGYRLRSALIAAVFRKSLRLTNEGRKKFQTGKITNLMTTDAESLQQICQSLHTMWSAPFRIIVALVLLYQQLGVASIIGALFLVLMFPIQTVIISKTQKLTKEGLQRTDKRIGLMNEVLAAMDTVKCYAWENSFQSKVQTVRDDELSWFRKAQLLSAFNMFILNSIPVLVTVVSFGVFSLLGGDLTPARAFTSLSLFSVLRFPLFMLPNIITQMVNANVSLNRLEEVLSTEERVLLPNPPIEPGQPAISIRNGYFSWDSKADRPTLSNINLDIPLGSLVAVVGSTGEGKTSLISAMLGELPARSDATVTLRGSVAYVPQVSWIFNATVRDNILFGAPFDQEKYERVIDVTALQHDLELLPGGDLTEIGERGVNISGGQKQRVSMARAVYSNSDVCILDDPLSALDAHVGQQVFEKCIKRELGQTTRVLVTNQLHFLSQVDKILLVHEGTVKEEGTYEELCHSGPLFQRLMENAGKVEDYSEENGEAEVDQTSVKPVENGNANNLQKDGIETKNSKEGNSVLVKREERETGVVSWKVLERYQNALGGAWVVMMLVICYVLTQVFRVSSSTWLSEWTDSGTPKTHGPLFYNIVYALLSFGQVSVTLINSYWLIMSSLYAAKKMHDAMLGSILRAPMVFFQTNPLGRIINRFAKDMGDIDRTVAVFVNMFMGSIAQLLSTVILIGIVSTLSLWAIMPLLVVFYGAYLYYQNTSREIKRMDSTTRSPVYAQFGEALNGLSSIRAYKAYDRMAEINGRSMDNNIRFTLVNMAANRWLGIRLEVLGGLMVWLTASLAVMQNGKAANQQAYASTMGLLLSYALSITSSLTAVLRLASLAENSLNSVERVGNYIEIPSEAPLVIENNRPPPGWPSSGSIKFEDVVLRYRPELPPVLHGVSFLISPMDKVGIVGRTGAGKSSLLNALFRIVELEKGRILIDECDIGRFGLMDLRKVLGIIPQAPVLFSGTVRFNLDPFSEHNDADLWESLERAHLKDTIRRNPLGLDAEVTEAGENFSVGQRQLLSLARALLRRSKILVLDEATAAVDVRTDVLIQKTIREEFKSCTMLIIAHRLNTIIDCDKVLVLDSGKVQEFSSPENLLSNGESSFSKMVQSTGTANAEYLRSITLENKRTREANGDDSQPLEGQRKWQASSRWAAAAQFALAVSLTSSHNDLQSLEIEDDNSILKKTKDAVVTLRSVLEGKHDKEIEDSLNQSDISRERWWPSLYKMVEGLAVMSRLARNRMQHPDYNLEGKSFDWDNVEM
notes: S. cerevisiae DTY168 (ycf1 null) vacuolar-enriched membrane vesicles
**Q.** How did the Km [5] turn out when B1 was run?
**A.** Its Km is 219 µM.

**Q.** What about the Km [6] of the same molecule?
**A.** The Km was 48.7 ± 15.4 µM and 73.8 µM and 49.7 ± 15.4 µM.

B2: AtMRP2 (Arabidopsis thaliana) (protein)
chain: MGFEFIEWYCKPVPNGVWTKQVANAFGAYTPCATDSFVLGISQLVLLVLCLYRIWLALKDHKVERFCLRSRLYNYFLALLAAYATAEPLFRLIMGISVLDFDGPGLPPFEAFGLGVKAFAWGAVMVMILMETKIYIRELRWYVRFAVIYALVGDMVLLNLVLSVKEYYSSYVLYLYTSEVGAQVLFGILLFMHLPNLDTYPGYMPVRSETVDDYEYEEISDGQQICPEKHANIFDKIFFSWMNPLMTLGSKRPLTEKDVWYLDTWDQTETLFTSFQHSWDKELQKPQPWLLRALNNSLGGRFWWGGFWKIGNDCSQFVGPLLLNQLLKSMQEDAPAWMGYIYAFSIFVGVVFGVLCEAQYFQNVMRVGYRLRSALIAAVFRKSLRLTNEGRRKFQTGKITNLMTTDAESLQQICQSLHTMWSAPFRIIIALILLYQQLGVASLIGALLLVLMFPLQTVIISKMQKLTKEGLQRTDKRIGLMNEVLAAMDTVKCYAWENSFQSKVQTVRDDELSWFRKSQLLGALNMFILNSIPVLVTIVSFGVFTLLGGDLTPARAFTSLSLFAVLRFPLFMLPNIITQVVNANVSLKRLEEVLATEERILLPNPPIEPGEPAISIRNGYFSWDSKGDRPTLSNINLDVPLGSLVAVVGSTGEGKTSLISAILGELPATSDAIVTLRGSVAYVPQVSWIFNATVRDNILFGSPFDREKYERAIDVTSLKHDLELLPGGDLTEIGERGVNISGGQKQRVSMARAVYSNSDVYIFDDPLSALDAHVGQQVFEKCIKRELGQKTRVLVTNQLHFLSQVDRIVLVHEGTVKEEGTYEELSSNGPLFQRLMENAGKVEEYSEENGEAEADQTAEQPVANGNTNGLQMDGSDDKKSKEGNKKGGKSVLIKQEERETGVVSWRVLKRYQDALGGAWVVMMLLLCYVLTEVFRVTSSTWLSEWTDAGTPKSHGPLFYNLIYALLSFGQVLVTLTNSYWLIMSSLYAAKKLHDNMLHSILRAPMSFFHTNPLGRIINRFAKDLGDIDRTVAVFVNMFMGQVSQLLSTVVLIGIVSTLSLWAIMPLLVLFYGAYLYYQNTAREVKRMDSISRSPVYAQFGEALNGLSTIRAYKAYDRMADINGRSMDNNIRFTLVNMGANRWLGIRLETLGGLMIWLTASFAVMQNGRAENQQAFASTMGLLLSYALNITSLLTGVLRLASLAENSLNAVERVGNYIEIPPEAPPVIENNRPPPGWPSSGSIKFEDVVLRYRPQLPPVLHGVSFFIHPTDKVGIVGRTGAGKSSLLNALFRIVEVEKGRILIDDCDVGKFGLMDLRKVLGIIPQSPVLFSGTVRFNLDPFGEHNDADLWESLERAHLKDTIRRNPLGLDAEVSEAGENFSVGQRQLLSLSRALLRRSKILVLDEATAAVDVRTDALIQKTIREEFKSCTMLIIAHRLNTIIDCDKILVLDSGRVQEFSSPENLLSNEGSSFSKMVQSTGAANAEYLRSLVLDNKRAKDDSHHLQGQRKWLASSRWAAAAQFALAASLTSSHNDLQSLEIEDDSSILKRTNDAVVTLRSVLEGKHDKEIAESLEEHNISREGWLSSLYRMVEGLAVMSRLARNRMQQPDYNFEGNTFDWDNVEM
**Q.** B2 was tested. Which Km [5] did it give?
**A.** Its Km is 73.0 ± 15.1 µM.
